What was measured:
Type in all cases: biochemical
[1] = biological target: Glycogen Synthase Kinase 3 (GSK-3) (Homo sapiens, UniProt P49841); experiment: GSK-3 inhibition assay (standard coupled enzyme assay); details: 60 nM GSK-3, 10 μM ATP; read-out: GSK-3 Inhibitory Activity (Ki rating A-C)
Experimental: Compounds were screened in the following manner for their ability to inhibit Glycogen Synthase Kinase 3 (GSK-3) using a standard coupled enzyme assay (Fox et al (1998) Protein Sci 7, 2249). To an assay stock buffer solution containing 0.1M HEPES 7.5, 10 mM MgCl2, 25 mM NaCl, 2.5 mM phosphoenolpyruvate, 300 μM NADH, 1 mM DTT, 30 μg/mL pyruvate kinase, 10 μg/mL lactate dehydrogenase, 300 μM peptide (HSSPHQp-SEDEEE, American Peptide, Sunnyvale, Calif.), and 60 nM GSK-3, was added a 30 μM solution of the compound in DMSO and the resulting mixture incubated at 30° C. for 5 min. The reaction was initiated by the addition of 10 μM ATP. The rates of reaction were obtained by monitoring absorbance at 340 nm over a 5 minute read time at 30° C. using a Molecular Devices plate reader (Sunnyvale, Calif.). The IC50 was determined from the rate data as a function of inhibitor concentration.

[2] = biological target: T1, full length recombinant human Src kinase (Homo sapiens, UniProt P12931); experiment: Src inhibition assay (33P incorporation into poly Glu-Tyr); details: for Ki: 10 μM ATP, read-out: Activity in the SRC Inhibition Assay (Ki rating A-C); for inhibition at 2 µM: at a 2 μM inhibitor concentration, read-out: Activity in the SRC Inhibition Assay (percent inhibition rating D-F)
T1 construct: full length recombinant human Src kinase; purchased Upstate Biotechnology 14-117; host or cells: baculo viral cells (baculovirus expression)
T1 sequence (P12931 whole entry): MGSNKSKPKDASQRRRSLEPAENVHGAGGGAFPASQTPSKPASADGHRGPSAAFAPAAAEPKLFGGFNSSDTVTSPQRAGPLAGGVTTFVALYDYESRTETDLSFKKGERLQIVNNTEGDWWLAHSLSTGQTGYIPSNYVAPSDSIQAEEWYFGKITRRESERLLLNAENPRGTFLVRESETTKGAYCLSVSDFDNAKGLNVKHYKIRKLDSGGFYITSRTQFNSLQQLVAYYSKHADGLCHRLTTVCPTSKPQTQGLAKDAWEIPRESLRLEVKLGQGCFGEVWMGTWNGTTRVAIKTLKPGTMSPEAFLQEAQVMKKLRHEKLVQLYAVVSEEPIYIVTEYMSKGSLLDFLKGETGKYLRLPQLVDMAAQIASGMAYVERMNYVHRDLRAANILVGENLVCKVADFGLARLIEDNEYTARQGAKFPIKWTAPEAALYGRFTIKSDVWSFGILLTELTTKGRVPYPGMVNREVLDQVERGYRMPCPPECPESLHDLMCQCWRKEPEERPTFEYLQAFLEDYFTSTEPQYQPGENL
Experimental: The compounds were assayed as inhibitors of full length recombinant human Src kinase (from Upstate Biotechnology, cat. no. 14-117) expressed and purified from baculo viral cells. Src kinase activity was monitored by following the incorporation of ^33P from ATP into the tyrosine of a random poly Glu-Tyr polymer substrate of composition, Glu:Tyr=4:1 (Sigma, cat. no. P-0275). The following were the final concentrations of the assay components: 0.05 M HEPES, pH 7.6, 10 mM MgCl2, 2 mM DTT, 0.25 mg/ml BSA, 10 μM ATP (1-2 μCi ^33P-ATP per reaction), 5 mg/ml poly Glu-Tyr, and 1-2 units of recombinant human Src kinase. In a typical assay, all the reaction components with the exception of ATP were pre-mixed and aliquoted into assay plate wells. […] The assay plate was incubated at 30° C. for 10 min before initiating the reaction with ^33P-ATP. After 20 min of reaction, the reactions were quenched with 150 μl of 10% trichloroacetic acid (TCA) containing 20 mM Na3PO4. The quenched samples were then transferred to a 96-well filter plate (Whatman, UNI-Filter GF/F Glass Fiber Filter, cat no. 7700-3310) installed on a filter plate vacuum manifold. Filter plates were washed four times with 10% TCA containing 20 mM Na3PO4 and then 4 times with methanol. 200 μl of scintillation fluid was then added to each well. The plates were sealed and the amount of radioactivity associated with the filters was quantified on a TopCount scintillation counter.

activated JNK3 = biological target: T2, activated JNK3 (Homo sapiens, UniProt P53779); experiment: JNK inhibition assay (spectrophotometric coupled-enzyme assay); details: for Ki: 10 nM activated JNK3, 10 μM ATP, read-out: Activity in the JNK3 Inhibition Assay (Ki rating A-C)
T2 construct: One such construct encodes amino acid residues Ser40-Glu402 of JNK3α1 and is preceded by Met and Gly residues; Met-Gly (initiator methionine and added glycine) (N); made in house; host or cells: E. coli BL21 (DE3)
T2 sequence (P53779 40-402): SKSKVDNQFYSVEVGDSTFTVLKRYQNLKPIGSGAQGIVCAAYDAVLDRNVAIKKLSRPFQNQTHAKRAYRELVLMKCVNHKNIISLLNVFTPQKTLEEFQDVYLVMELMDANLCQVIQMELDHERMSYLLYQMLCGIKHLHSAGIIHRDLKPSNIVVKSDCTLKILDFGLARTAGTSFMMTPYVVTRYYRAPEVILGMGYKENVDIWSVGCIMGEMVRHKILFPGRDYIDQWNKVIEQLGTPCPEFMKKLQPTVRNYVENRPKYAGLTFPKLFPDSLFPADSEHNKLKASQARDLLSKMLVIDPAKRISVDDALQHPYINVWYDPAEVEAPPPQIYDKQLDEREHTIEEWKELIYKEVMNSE
Outline: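 Activated (doubly phosphorylated, MKK7(DD)-activated) human JNK3, 10 nM, preincubated 10 min at 30 °C with inhibitor in 0.1 M HEPES pH 7.5, 10 mM MgCl2, 200 μM EGF receptor peptide, PK/LDH-coupled. Started with 10 μM ATP; A340 decrease followed at 30 °C. Ki from competitive inhibition model fit.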

CDK-2/Cyclin A = CDK-2/Cyclin A (Homo sapiens, UniProt P24941); experiment: CDK2 inhibition assay (standard coupled enzyme assay); details: 25 nM CDK-2/Cyclin A; read-out: CDK2 Inhibitory Activity (Ki rating A-C)
Outline: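 Pyruvate kinase/lactate dehydrogenase-coupled assay in pH 7.5 HEPES with 100 μM peptide substrate and ATP […]; compound (30 μM final) preincubated 10 min at 30° C before adding CDK-2/Cyclin A to 25 nM.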

Glycogen Synthase Kinase 3 (GSK-3), sequence (P49841 whole entry): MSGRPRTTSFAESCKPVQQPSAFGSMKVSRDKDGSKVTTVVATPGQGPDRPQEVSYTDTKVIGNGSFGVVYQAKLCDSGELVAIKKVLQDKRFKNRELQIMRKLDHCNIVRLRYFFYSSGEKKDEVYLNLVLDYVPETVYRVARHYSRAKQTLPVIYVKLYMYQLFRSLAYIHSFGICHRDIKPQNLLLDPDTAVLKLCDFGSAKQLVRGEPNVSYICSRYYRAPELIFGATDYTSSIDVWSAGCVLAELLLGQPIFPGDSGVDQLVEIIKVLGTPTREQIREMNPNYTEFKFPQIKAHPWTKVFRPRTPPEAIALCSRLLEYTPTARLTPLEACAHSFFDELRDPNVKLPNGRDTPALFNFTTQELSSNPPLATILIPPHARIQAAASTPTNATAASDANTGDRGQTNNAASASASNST

Ki [1] [nM]	Ki [2] [nM]	Ki (activated JNK3) [nM]	Ki (CDK-2/Cyclin A) [nM]	inhibition at 2 µM [2] [%]	SMILES	Activity in the JNK3 Inhibition Assay (percent inhibition rating D-F) (activated JNK3; at a 2 μM inhibitor concentration)
> 1000	> 1000	100 to 1000	> 5000		COc1cc(-c2ccnc(Nc3ccc(Cl)cc3)n2)cc(OC)c1OC [Compound I-1]	
< 100		< 100	> 5000	67 to 100	COc1cc(-c2ccnc(Nc3cccc(Br)c3)n2)cc(OC)c1OC [Compound I-59]	
100 to 1000		< 100		< 33	COc1cc(-c2ccnc(Nc3ccc4ccccc4c3)n2)cc(OC)c1OC [Compound I-62]	

Continued, compound first:

SMILES	Ki [1] [nM]	Ki [2] [nM]	Ki (activated JNK3) [nM]	Ki (CDK-2/Cyclin A) [nM]	inhibition at 2 µM [2] [%]	Activity in the JNK3 Inhibition Assay (percent inhibition rating D-F) (activated JNK3; at a 2 μM inhibitor concentration)
COc1cc(-c2ccnc(NC3CCCCC3)n2)cc(OC)c1OC [Compound I-4]	> 1000	> 1000	100 to 1000	> 5000		
COc1cc(Nc2nccc(-c3cc(OC)c(OC)c(OC)c3)n2)cc(OC)c1 [Compound I-12]	100 to 1000		< 100	> 5000	< 33	
COc1ccc(Nc2nccc(-c3cc(OC)c(OC)c(OC)c3)n2)cc1OC [Compound I-64]	100 to 1000				67 to 100	F (percent inhibition of between 67% and 100%)
COc1cc(-c2ccnc(Nc3cccc(Cl)c3)n2)cc2c1OCCO2 [Compound I-75]	< 100		< 100		67 to 100	

Reference: patent publication US6949544B2, “Inhibitors of c-Jun N-terminal kinases (JNK) and other protein kinases” (Vertex Pharmaceuticals Incorporated, priority 2001, dated 2005)
